According to US20190083462A1, “PREVENTION OF NSAID ENTEROPATHY WITH MICROBIOTA-DERIVED TRYPTOPHAN-METABOLITE” (THE TEXAS A&M UNIVERSITY SYSTEM, priority 2016, published 2019):
Marks after values point to notes of the source that are not given here.

Columns and labels:
fecal microbiota [1] = test: Inferred metagenome of the fecal microbiota (PICRUSt, SIMPER); format: in vivo, mice; conditions: for mean % abundance: day 7 feces
Description: Eight- to 10-week-old specific-pathogen-free C57BL/6J mice were purchased and allowed to acclimate for 2 weeks. Mice were fed standardized laboratory rodent diet and sterile water ad libitum. […] Mice were then rehoused on the basis of treatment group assignment, with 5 animals/group-cage. To induce NSAID enteropathy, mice in group 1 were gavaged once daily with indomethacin (5 mg/kg; for 7 days; Sigma Aldrich, St. Louis, Mo.) dissolved in dimethylysulfoxide (DMSO) (Sigma Aldrich, St. Louis, Mo.) and further diluted in phosphate buffered saline (PBS). […] Sigma Aldrich, St. Louis, Mo.) dissolved in sterile water warmed to 55° C. […] All mice were gavaged with equal volumes (200 μL) and equal concentrations of DMSO (0.001%). Feces were collected daily by placing individual animals in sterile plastic cups that were RNase- and DNase-free until they passed feces. The mice were immediately returned to their home cages and the feces immediately flash frozen at -80° C. All animals were euthanized via CO2 asphyxiation on day 8 (i.e., after 7 days of treatment). […] Life Technologies, Carlsbad, Calif.), homogenized, and prepared as a single cell suspension for flow cytometric analysis as previously described (Wang […]. Measuring bacterial load and immune responses in mice infected with Listeria monocytogenes. Journal of Visualized Experiments: JoVE 2011). The software Phylogenetic Investigation of Communities by Reconstruction of Unobserved States (PICRUSt) was used to predict the metagenome ([…], Knights […] Thurber R L, Knight R, et al. Predictive functional profiling of microbial communities using 16S rRNA marker gene sequences. Nature Biotechnology 2013; 31:814-21). Sequencing data were prepared as described above, but sequences were then clustered into OTUs using a closed-reference OTU picking protocol at the 97% sequencing identity level [http://qiime.org/scripts/pick_closed_reference_otus.html]. The resulting OTU table was normalized by the expected copy number(s) of the 16s rRNA gene in each OTU. PICRUSt was then used to predict the metagenome [https://picrust.github.io/picrust/tutorials/metagenome_prediction.html#metagenome-prediction-tutorial]. Each sample was rarefied to an even sequencing depth to adjust for uneven sequencing depth prior to further analysis. Differences in the metagenomes among the groups were investigated by visual assessment of clustering on PCA and by analysis of similarity (ANOSIM) calculated on Bray Curtis dissimilarity metric.

fecal microbiota [2] = test: Fecal microbiota 16S rRNA sequencing (ANOSIM, SIMPER); format: in vivo, mice
[3] = Unclassified, Metabolism, Energy metabolism
[4] = Unclassified, Metabolism, Others
[5] = unweighted Unifrac distance metric, day 7

SMILES: COc1ccc2c(c1)c(CC(=O)O)c(C)n2C(=O)c1ccc(Cl)cc1 [NSAID, indomethacin]
- vs. Control Direction (fecal microbiota [1]; Alanine, aspartate and glutamate metabolism): ↓
- vs. Control Direction (fecal microbiota [1]; Amino Acid related enzymes): ↑
- vs. Control Direction (fecal microbiota [1]; Carbohydrate Metabolism, Citrate cycle (TCA cycle)): ↑
- vs. Control Direction (fecal microbiota [1]; Cell Motility, Bacterial chemotaxis): ↑
- vs. Control Direction (fecal microbiota [1]; Cell Motility, Bacterial motility proteins): ↑
- vs. Control Direction (fecal microbiota [1]; Cell Motility, Flagellar assembly): ↑
- vs. Control Direction (fecal microbiota [1]; Cellular Processes and Signalling, Sporulation): ↑
- mean % abundance (fecal microbiota [1]; Cellular Processes, Cell Motility, Bacterial chemotaxis): 1.30%
- mean % abundance (fecal microbiota [1]; Cellular Processes, Cell Motility, Bacterial motility proteins): 0.81%
- mean % abundance (fecal microbiota [1]; Cellular Processes, Cell Motility, Flagellar assembly): 0.91%
- vs. Control Direction (fecal microbiota [1]; Chaperones and folding catalysts): ↓
- vs. Control Direction (fecal microbiota [1]; Energy Metabolism, Carbon fixation pathways in prokaryotes): ↓
- vs. Control Direction (fecal microbiota [1]; Energy Metabolism, Oxidative phosphorylation): ↑
- mean % abundance (fecal microbiota [1]; Environmental Information Processing, Membrane Transport, ABC transporters): 1.71%
- mean % abundance (fecal microbiota [1]; Environmental Information Processing, Membrane Transport, Phosphotransferase system (PTS)): 0.18%
- mean % abundance (fecal microbiota [1]; Environmental Information Processing, Membrane Transport, Transporters): 3.82%
- mean % abundance (fecal microbiota [1]; Environmental Information Processing, Signal Transduction, Two-component system): 0.20%
- vs. Control Direction (fecal microbiota [1]; Folate biosynthesis): ↑
- mean % abundance (fecal microbiota [1]; Genetic Information Processing, Folding, Sorting and Degradation, Chaperones and folding catalysts): 0.61%
- mean % abundance (fecal microbiota [1]; Genetic Information Processing, Replication and Repair DNA repair and recombination proteins): 3.12%
- mean % abundance (fecal microbiota [1]; Genetic Information Processing, Replication and Repair, DNA replication proteins): 0.50%
- mean % abundance (fecal microbiota [1]; Genetic Information Processing, Replication and Repair, Homologous recombination): 2.12%
- mean % abundance (fecal microbiota [1]; Genetic Information Processing, Transcription, Transcription factors): 0.31%
- mean % abundance (fecal microbiota [1]; Genetic Information Processing, Translation Ribosome Biogenesis): 0.70%
- mean % abundance (fecal microbiota [1]; Genetic Information Processing, Translation, Ribosome): 2.94%
- vs. Control Direction (fecal microbiota [1]; Lipopolysaccharide biosynthesis): ↑
- vs. Control Direction (fecal microbiota [1]; Lipopolysaccharide biosynthesis proteins): ↑
- vs. Control Direction (fecal microbiota [1]; Membrane Transport, ABC transporters): ↓
- vs. Control Direction (fecal microbiota [1]; Membrane Transport, Phosphotransferase system (PTS)): ↓
- vs. Control Direction (fecal microbiota [1]; Membrane Transport, Transporters): ↓
- vs. Control Direction (fecal microbiota [1]; Membrane and intracellular structural molecules): ↓
- mean % abundance (fecal microbiota [1]; Metabolism, Amino Acid Metabolism, Alanine, aspartate and glutamate metabolism): 1.14%
- mean % abundance (fecal microbiota [1]; Metabolism, Amino Acid Metabolism, Amino Acid related enzymes): 1.65%
- mean % abundance (fecal microbiota [1]; Metabolism, Carbohydrate Metabolism, Citrate cycle (TCA cycle)): 1.25%
- mean % abundance (fecal microbiota [1]; Metabolism, Energy Metabolism, Carbon fixation pathways in prokaryotes): 0.40%
- mean % abundance (fecal microbiota [1]; Metabolism, Energy Metabolism, Oxidative phosphorylation): 1.65%
- mean % abundance (fecal microbiota [1]; Metabolism, Glycan Biosynthesis and Metabolism, Lipopolysaccharide biosynthesis proteins): 1.48%
- mean % abundance (fecal microbiota [1]; Metabolism, Glycan Biosynthesis and Metabolism, Lipopolysaccharide biosynthesis): 1.55%
- mean % abundance (fecal microbiota [1]; Metabolism, Glycan Biosynthesis and Metabolism, Other glycan degradation): 1.27%
- mean % abundance (fecal microbiota [1]; Metabolism, Metabolism of Cofactors and Vitamins, Folate biosynthesis): 1.66%
- mean % abundance (fecal microbiota [1]; Metabolism, Metabolism of Cofactors and Vitamins, One carbon pool by folate): 0.49%
- mean % abundance (fecal microbiota [1]; Metabolism, Metabolism of Cofactors and Vitamins, Porphyrin and chlorophyll metabolism): 2.42%
- mean % abundance (fecal microbiota [1]; Metabolism, Nucleotide Metabolism, Purine metabolism): 0.90%
- mean % abundance (fecal microbiota [1]; Metabolism, Nucleotide Metabolism, Pyrimidine metabolism): 2.24%
- vs. Control Direction (fecal microbiota [1]; Nucleotide Metabolism, Purine metabolism): ↓
- vs. Control Direction (fecal microbiota [1]; Nucleotide Metabolism, Pyrimidine metabolism): ↑
- vs. Control Direction (fecal microbiota [1]; One carbon pool by folate): ↓
- vs. Control Direction (fecal microbiota [1]; Other glycan degradation): ↑
- vs. Control Direction (fecal microbiota [1]; Pores ion channels): ↑
- vs. Control Direction (fecal microbiota [1]; Porphyrin and chlorophyll metabolism): ↑
- vs. Control Direction (fecal microbiota [1]; Replication and Repair DNA repair and recombination proteins): ↑
- vs. Control Direction (fecal microbiota [1]; Replication and Repair, DNA replication proteins): ↓
- vs. Control Direction (fecal microbiota [1]; Replication and Repair, Homologous recombination): ↑
- vs. Control Direction (fecal microbiota [1]; Signal Transduction, Two-component system): ↓
- vs. Control Direction (fecal microbiota [1]; Transcription, Transcription factors): ↓
- vs. Control Direction (fecal microbiota [1]; Translation Ribosome Biogenesis): ↓
- vs. Control Direction (fecal microbiota [1]; Translation, Ribosome): ↑
- mean % abundance (fecal microbiota [1]; Unclassified, Cellular Processes and Signaling, Pores ion channels): 3.54%
- mean % abundance (fecal microbiota [1]; Unclassified, Cellular Processes and Signalling, Membrane and intracellular structural molecules): 0.17%
- mean % abundance (fecal microbiota [1]; Unclassified, Cellular Processes and Signalling, Sporulation): 1.00%
- vs. Control Direction (fecal microbiota [1]; [3]): ↑
- mean % abundance (fecal microbiota [1]; [3]): 1.25%
- vs. Control Direction (fecal microbiota [1]; [4]): ↑
- mean % abundance (fecal microbiota [1]; [4]): 0.84%
- members of the Bacteroidales S24-7 family (fecal microbiota [2]; SIMPER, day 7 feces): gain
- mean % abundance (fecal microbiota [2]; family Unassigned, Other, day 7 feces): 0.00317%
- mean % abundance (fecal microbiota [2]; family c_Bacilli, Other, day 7 feces): 0%
- mean % abundance (fecal microbiota [2]; family o_Actinomycetales, f_Micrococcaceae, day 7 feces): 0.00951%
- mean % abundance (fecal microbiota [2]; family o_Anaeroplasmatales, f_Anaeroplasmataceae, day 7 feces): 0.0317%
- mean % abundance (fecal microbiota [2]; family o_Bacillales, Other, day 7 feces): 0.019%
- mean % abundance (fecal microbiota [2]; family o_Bacillales, f_Bacillaceae, day 7 feces): 0.00317%
- mean % abundance (fecal microbiota [2]; family o_Bacillales, f_Staphylococcaceae, day 7 feces): 0.019%
- mean % abundance (fecal microbiota [2]; family o_Bacteroidale, f_Bacteroidaceae, day 7 feces): 0.00634%
- mean % abundance (fecal microbiota [2]; family o_Bacteroidales, f_Prevotellaceae, day 7 feces): 0.00317%
- mean % abundance (fecal microbiota [2]; family o_Bacteroidales, f_S24-7, day 7 feces): 81.2%
- mean % abundance (fecal microbiota [2]; family o_Clostridiales, Other, day 7 feces): 0.00317%
- mean % abundance (fecal microbiota [2]; family o_Clostridiales, f_ (unnamed), day 7 feces): 7.67%
- mean % abundance (fecal microbiota [2]; family o_Clostridiales, f_Clostridiaceae, day 7 feces): 1.68%
- mean % abundance (fecal microbiota [2]; family o_Clostridiales, f_Dehalobacteriaceae, day 7 feces): 0.00634%
- mean % abundance (fecal microbiota [2]; family o_Clostridiales, f_Lachnosoiraceae, day 7 feces): 1.31%
- mean % abundance (fecal microbiota [2]; family o_Clostridiales, f_Ruminococcaceae, day 7 feces): 3.53%
- mean % abundance (fecal microbiota [2]; family o_Clostridiales, f_[Mogibacteriaceae], day 7 feces): 0.00634%
- mean % abundance (fecal microbiota [2]; family o_Coriobacteriales, f_Coriobacteriaceae, day 7 feces): 0.0381%
- mean % abundance (fecal microbiota [2]; family o_Cytophagales, f_Cytophagacae, day 7 feces): 0%
- mean % abundance (fecal microbiota [2]; family o_Erysipelotrichales, f_Erysipelotrichaceae, day 7 feces): 0.136%
- mean % abundance (fecal microbiota [2]; family o_Lactobacillales, f_Aerococcaceae, day 7 feces): 0%
- mean % abundance (fecal microbiota [2]; family o_Lactobacillales, f_Enterococcaceae, day 7 feces): 0.171%
- mean % abundance (fecal microbiota [2]; family o_Lactobacillales, f_Lactobacillaceae, day 7 feces): 2.48%
- mean % abundance (fecal microbiota [2]; family o_Lactobacillales, f_Streptococcaceae, day 7 feces): 0%
- mean % abundance (fecal microbiota [2]; family o_RF 39, f_ (unnamed), day 7 feces): 1.62%
- mean % abundance (fecal microbiota [2]; family o_Turicibacterales, f_Turicibacteraceae, day 7 feces): 0.0412%
- abundance of members of the phyla Firmicutes and Bacteroidetes (fecal microbiota [2]; fecal 16S rRNA sequences, Day 0 vs Day 7): no significant difference
- mean % abundance (fecal microbiota [2]; mouse, in vivo): 0%
- mean % abundance (fecal microbiota [2]; order Unassigned, Other, day 7 feces): 0.00317%
- mean % abundance (fecal microbiota [2]; order c_Mollicutes, o_RF39, day 7 feces): 1.62%
- mean % abundance (fecal microbiota [2]; order o_Actinomycetales, day 7 feces): 0.00951%
- mean % abundance (fecal microbiota [2]; order o_Anaeroplasmatales, day 7 feces): 0.0317%
- mean % abundance (fecal microbiota [2]; order o_Bacillales, day 7 feces): 0.0412%
- mean % abundance (fecal microbiota [2]; order o_Bacteroidales, day 7 feces): 81.2%
- mean % abundance (fecal microbiota [2]; order o_Clostridiales, day 7 feces): 14.2%
- mean % abundance (fecal microbiota [2]; order o_Coriobacteriales, day 7 feces): 0.0381%
- mean % abundance (fecal microbiota [2]; order o_Cytophagales, day 7 feces): 0%
- mean % abundance (fecal microbiota [2]; order o_Erysipelotrichales, day 7 feces): 0.136%
- mean % abundance (fecal microbiota [2]; order o_Lactobacillales, day 7 feces): 2.65%
- mean % abundance (fecal microbiota [2]; order o_Turicibacterales, day 7 feces): 0.0412%
- mean % abundance (fecal microbiota [2]; order p_Firmicutes, c_Bacilli, Other, day 7 feces): 0%
- mean % abundance (fecal microbiota [2]; phylum Unassigned, Other, day 7 feces): 0.00317%
- mean % abundance (fecal microbiota [2]; phylum k_Bacteria, Other, day 7 feces): 0%
- mean % abundance (fecal microbiota [2]; phylum k_Bacteria, p_Acidobacteria, day 7 feces): 0.00317%
- mean % abundance (fecal microbiota [2]; phylum k_Bacteria, p_Actinobacteria, day 7 feces): 0.0476%
- mean % abundance (fecal microbiota [2]; phylum k_Bacteria, p_Bacteroidetes, day 7 feces): 81.2%
- mean % abundance (fecal microbiota [2]; phylum k_Bacteria, p_Cyanobacteria, day 7 feces): 0.00634%
- mean % abundance (fecal microbiota [2]; phylum k_Bacteria, p_Firmicutes, day 7 feces): 17.1%
- mean % abundance (fecal microbiota [2]; phylum k_Bacteria, p_Proteobacteria, day 7 feces): 0.00317%
- mean % abundance (fecal microbiota [2]; phylum k_Bacteria, p_Tenericutes, day 7 feces): 1.66%
- mean % abundance (fecal microbiota [2]; phylum k_Bacteria, p_Verrucomicrobia, day 7 feces): 0%
- Pairwise ANOSIM R-value vs Control (fecal microbiota [2]; [5]): 0.5487*
- Pairwise ANOSIM R-value vs Indole (fecal microbiota [2]; [5]): 0.2615
- Pairwise ANOSIM R-value vs NSAID + Indole (fecal microbiota [2]; [5]): 0.4444
